Measurements reported in publication PMC7069944, “Amino acid levels determine metabolism and CYP450 function of hepatocytes and hepatoma cell lines” (Nature Communications, 2020).
Values joined by “and” are separate entries in the source; they are usually repeats but may differ in a detail not shown here. Equal values may be shown once.

What was measured:
CYP3A4 [1] = assay: qRT-PCR CYP3A4 expression in HepG2; format: cell-based, human
Procedure: AA supplementation was accomplished through the addition of MEM Non-Essential Amino Acids Solution (100 × ) and MEM Amino Acids Solution (50 × ) (Thermo Scientific) to the culture medium. For AA1, AA2, and AA3 medium, we added respectively 2 ml, 8 ml, and 16 ml of non-essential AA solution and 1 ml, 4 ml, and 8 ml of essential AA solution per 100 ml of LDM, with or without glucose. Culture medium was then made PH neutral through the addition of NaOH. […] PSC derived HLCs were differentiated in LDM until D12. AA supplementation (AA1, AA2 and AA3) was performed from day 12 until day 20, 30 or 40 of differentiation. […] HepG2, HUH7.5, Hep3B, HHL5, and HEK293 cells were maintained in DMEM supplemented with 10% fetal bovine serum as shown in Supplementary Table 4. AA supplementation consisted of addition of 16 ml of non-essential AA mix and 8 ml of essential AA mix per 100 ml of medium and a further addition of 20 g/l of any of the single AAs. […] PHHs were maintained in a medium composition that was based on WE as detailed in ref. [67].
RNA extraction was performed using the GenElute Mammalian Total RNA Miniprep Kit (Sigma-Aldrich). Then, genomic DNA was eliminated using the On-Column DNase I Digestion kit (Sigma-Aldrich). Last, 1 µg of RNA was transcribed to cDNA using the Superscript III First-Strand synthesis (Invitrogen). Gene expression analysis was performed using the Platinum SYBR green qPCR supermix-UDG kit (Invitrogen) in a ViiA 7 Real-Time PCR instrument (Thermo Scientific, Waltham, MA). The sequences of all used qRT-PCR primers are listed in Supplementary Table 6. Of these, ribosomal protein L19 (RPL19) was used as a housekeeping gene for normalization.

CYP3A4 [2] = assay: qRT-PCR CYP3A4 expression in HLCs; format: cell-based, human; conditions: HLCs in AA3 medium with or without 2% of the single amino acid or mix; Figure 4B
Procedure: AA supplementation was accomplished through the addition of MEM Non-Essential Amino Acids Solution (100 × ) and MEM Amino Acids Solution (50 × ) (Thermo Scientific) to the culture medium. For AA1, AA2, and AA3 medium, we added respectively 2 ml, 8 ml, and 16 ml of non-essential AA solution and 1 ml, 4 ml, and 8 ml of essential AA solution per 100 ml of LDM, with or without glucose. Culture medium was then made PH neutral through the addition of NaOH. […] PSC derived HLCs were differentiated in LDM until D12. AA supplementation (AA1, AA2 and AA3) was performed from day 12 until day 20, 30 or 40 of differentiation. […] HepG2, HUH7.5, Hep3B, HHL5, and HEK293 cells were maintained in DMEM supplemented with 10% fetal bovine serum as shown in Supplementary Table 4. AA supplementation consisted of addition of 16 ml of non-essential AA mix and 8 ml of essential AA mix per 100 ml of medium and a further addition of 20 g/l of any of the single AAs. Hepatoma cell lines were plated in normal culture medium, with addition of AA3 + 20 g/l AA once cells reached 60% confluency, and this for 3 or 7 additional days of culture. PHHs were maintained in a medium composition that was based on WE as detailed in ref. [67].
RNA extraction was performed using the GenElute Mammalian Total RNA Miniprep Kit (Sigma-Aldrich). Then, genomic DNA was eliminated using the On-Column DNase I Digestion kit (Sigma-Aldrich). […]

CYP3A4 [3] = conditions: HepG2 in AA3+GLY medium with rapamycin
Procedure: Protein amount was measured using a pierce BCA protein assay kit (Thermo Scientific).

Row | Relative CYP3A4 expression (CYP3A4 [1]; single amino acid supplementation, relative to CTL (CTL values equal HepG2 D7 CTL)) | relative CYP3A4 expression (compared to LDM 2% DMSO D20) (CYP3A4 [2]) | Relative CYP3A4 expression (CYP3A4 [1]; HepG2 AAGLY D30 with RAPA) | effect on AA-mediated induction of CYP3A4 (CYP3A4 [3]) | SMILES
1 | 39.34 and 55.9446 and 51.9815 | 50.8533 and 59.0748 and 76.4937 |  |  | CC(C)[C@H](N)C(=O)O [VAL, valine]
2 |  |  | 1.244 and 1.301 and 1.514 | blocked the induction of CYP3A4 | CO[C@H]1C[C@@H]2CC[C@@H](C)[C@@](O)(O2)C(=O)C(=O)N2CCCC[C@H]2C(=O)O[C@H]([C@H](C)C[C@@H]2CC[C@@H](O)[C@H](OC)C2)CC(=O)[C@H](C)/C=C(\C)[C@@H](O)[C@@H](OC)C(=O)[C@H](C)C[C@H](C)/C=C/C=C/C=C/1C [rapamycin]
